The molecules below were run against T1, GCS (Canis lupus familiaris, UniProt A0A8I3MXG6) (assay: GCS enzymatic assay (MDCK cell lysate, NBD-ceramide to glucosylceramide, LC/MS)). Conditions: Table 2; class symbols A, B, C; the table does not say which of the assays; read-out: Data Range (IC50 values).
T1 construct: endogenous in cells; host or cells: MDCK (Madin-Darby canine kidney) cells, whole-cell lysate
T1 sequence (A0A8I3MXG6 1-394): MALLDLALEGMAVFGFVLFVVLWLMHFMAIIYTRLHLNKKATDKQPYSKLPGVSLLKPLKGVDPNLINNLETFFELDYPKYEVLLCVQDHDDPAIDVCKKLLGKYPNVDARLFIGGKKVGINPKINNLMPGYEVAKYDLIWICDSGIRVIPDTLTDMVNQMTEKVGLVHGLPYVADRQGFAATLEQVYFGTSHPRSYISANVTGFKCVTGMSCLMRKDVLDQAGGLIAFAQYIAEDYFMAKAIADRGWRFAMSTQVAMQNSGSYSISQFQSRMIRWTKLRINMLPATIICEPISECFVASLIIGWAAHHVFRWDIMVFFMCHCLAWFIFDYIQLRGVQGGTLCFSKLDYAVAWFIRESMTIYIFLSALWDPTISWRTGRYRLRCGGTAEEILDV
Format: biochemical, canine
How it was run: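 IC50 or percent inhibition came from LC/MS/MS (ESI+, MRM) of NBD-ceramide and glucosylceramide, with tolbutamide as internal standard. The reaction used MDCK (canine) cell lysate as the enzyme source and was ended with acetonitrile. Mock wells received 0.1% DMSO.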

SMILES | IC50 [nM]
O=C(N[C@H](CN1CCCC1)[C@H](O)c1ccc2c(c1)OCCO2)C1CCN(c2ccc3cc(Cl)sc3c2)C1 (stereo partly drawn) [Compound 76D, 1-(2-chlorobenzo[b]thiopen-6-yl)-N-((1R,2R)-1-(2,3-dihydrobenzo[b][1,4]dioxin-6-yl)-1-hydroxy-3-(pyrrolidin-1-yl)propan-2-yl)pyrrolidine-3-carboxamide] | 1 to 30
O=C(N[C@H](CN1CCCC1)[C@H](O)c1ccc(OC2CC2)c(Cl)c1)[C@@H]1CCN(c2ccc(Cl)c(-c3ccc(F)cc3)n2)C1 [Compound 146, (R)-N-((1R,2R)-1-(3-chloro-4-cyclopropoxyphenyl)-1-hydroxy-3-(pyrrolidin-1-yl)propan-2-yl)-1-(5-chloro-6-(4-fluorophenyl)pyridin-2-yl)pyrrolidine-3-carboxamide] | 1 to 30
O=C(N[C@H](CN1CCCC1)[C@H](O)c1ccc2c(c1)OCCO2)C1CCN(c2ccc(Cl)cc2)C1 (stereo partly drawn) [Compound 1C, 1-(4-chlorophenyl)-N-((1R,2R)-1-(2,3-dihydrobenzo[b][1,4]dioxin-6-yl)-1-hydroxy-3-(pyrrolidin-1-yl)propan-2-yl)pyrrolidine-3-carboxamide] | 1 to 30
O=C(N[C@H](CN1CCCC1)[C@H](O)c1ccc2c(c1)OCCO2)[C@@H]1CCN(c2ccc3ccccc3c2)C1 [Compound 70, (R)-N-((1R,2R)-1-(2,3-dihydrobenzo[b][1,4]dioxin-6-yl)-1-hydroxy-3-(pyrrolidin-1-yl)propan-2-yl)-1-(naphthalen-2-yl)pyrrolidine-3-carboxamide] | 1 to 30
CC(C)(O)COc1ccc([C@@H](O)[C@@H](CN2CCCC2)NC(=O)[C@@H]2CCN(c3ccc(Cl)cc3)C2)cc1Cl [Compound 87, (R)-N-((1R,2R)-1-(3-chloro-4-(2-hydroxy-2-methylpropoxy)phenyl)-1-hydroxy-3-(pyrrolidin-1-yl)propan-2-yl)-1-(4-chlorophenyl)pyrrolidine-3-carboxamide] | 1 to 30
O=C(N[C@H](CN1CCCC1)[C@H](O)c1ccc(OC2CCC2)c(Cl)c1)[C@@H]1CCN(c2ccc(Cl)cc2)C1 [Compound 140, (R)-N-((1R,2R)-1-(3-chloro-4-cyclobutoxyphenyl)-1-hydroxy-3-(pyrrolidin-1-yl)propan-2-yl)-1-(4-chlorophenyl)pyrrolidine-3-carboxamide] | 1 to 30
O=C(N[C@H](CN1CCC1)[C@H](O)c1ccc(OC2CC2)cc1)[C@H]1CCN(c2ccc3cc(F)ccc3c2)C1 [Compound 159C, (S)-N-((1R,2R)-3-(azetidin-1-yl)-1-(4-cyclopropoxyphenyl)-1-hydroxypropan-2-yl)-1-(6-fluoronaphthalen-2-yl)pyrrolidine-3-carboxamide] | 100 to 1000
O=C(N[C@H](CN1CCCC1)[C@H](O)c1ccc(OC(F)F)cc1)[C@@H]1CCN(c2ccccc2)C1 [Compound 161, (R)-N-((1R,2R)-1-(4-(difluoromethoxy)phenyl)-1-hydroxy-3-(pyrrolidin-1-yl)propan-2-yl)-1-phenylpyrrolidine-3-carboxamide] | 1 to 30
O=C(N[C@H](CN1CCCC1)[C@H](O)c1ccc2c(c1)OCCO2)[C@@H]1CCN(c2ccc(Cl)c(Oc3ccccn3)c2)C1 [Compound 110, (R)-1-(4-chloro-3-(pyridin-2-yloxy)phenyl)-N-((1R,2R)-1-(2,3-dihydrobenzo[b][1,4]dioxin-6-yl)-1-hydroxy-3-(pyrrolidin-1-yl)propan-2-yl)pyrrolidine-3-carboxamide] | 1 to 30
O=C(N[C@H](CN1CCC1)[C@H](O)c1ccc(OC2CC2)c(Cl)c1)[C@@H]1CCN(c2ccc3ccccc3c2)C1 [Compound 86, (R)-N-((1R,2R)-3-(azetidin-1-yl)-1-(3-chloro-4-cyclopropoxyphenyl)-1-hydroxypropan-2-yl)-1-(naphthalen-2-yl)pyrrolidine-3-carboxamide] | 1 to 30
O=C(N[C@H](CN1CCCC1)[C@H](O)c1ccc(OC2CCOCC2)c(Cl)c1)[C@@H]1CCN(c2ccc(Cl)cc2)C1 [Compound 45, (R)-N-((1R,2R)-1-(3-chloro-4-((tetrahydro-2H-pyran-4-yl)oxy)phenyl)-1-hydroxy-3-(pyrrolidin-1-yl)propan-2-yl)-1-(4-chlorophenyl)pyrrolidine-3-carboxamide] | 1 to 30
O=C(N[C@H](CN1CCCC1)[C@H](O)c1cc(F)c2c(c1)OCCO2)[C@@H]1CCN(c2ccc3cc(Cl)sc3c2)C1 [Compound 111, (R)-1-(2-chlorobenzo[b]thiophen-6-yl)-N-((1R,2R)-1-(8-fluoro-2,3-dihydrobenzo[b][1,4]dioxin-6-yl)-1-hydroxy-3-(pyrrolidin-1-yl)propan-2-yl)pyrrolidine-3-carboxamide] | 1 to 30

Same assay, conditions: Table 2; class symbols D, E, F, NA (not active); the table does not say which of the assays

SMILES | Data Range (% inhibition)
O=C(N[C@H](CN1CCCCC1)[C@H](O)c1ccc(OC2CC2)c(Cl)c1)[C@@H]1CCN(c2ccc(Cl)cc2)C1 [Compound 66, (R)-N-((1R,2R)-1-(3-chloro-4-cyclopropoxyphenyl)-1-hydroxy-3-(piperidin-1-yl)propan-2-yl)-1-(4-chlorophenyl)pyrrolidine-3-carboxamide] | F (1-49% (or less than 50%))
O=C(N[C@H](CN1CCCC1)[C@H](O)c1cc(F)c2c(c1)OCCO2)[C@@H]1CCN(C(=O)c2ccccc2)C1 [Compound 120, (R)-1-benzoyl-N-((1R,2R)-1-(8-fluoro-2,3-dihydrobenzo[b][1,4]dioxin-6-yl)-1-hydroxy-3-(pyrrolidin-1-yl)propan-2-yl)pyrrolidine-3-carboxamide] | F (1-49% (or less than 50%))
O=C(N[C@H](CN1CCCC1)[C@H](O)c1ccc2c(c1F)OCCO2)[C@@H]1CCN(c2ccc(Cl)cc2)C1 [Compound 130, (R)-1-(4-chlorophenyl)-N-((1R,2R)-1-(5-fluoro-2,3-dihydrobenzo[b][1,4]dioxin-6-yl)-1-hydroxy-3-(pyrrolidin-1-yl)propan-2-yl)pyrrolidine-3-carboxamide] | E (50-74% (or less than 75%))
O=C(N[C@H](CN1CCCCC1)[C@H](O)c1ccc2c(c1)OCCO2)[C@@H]1CCN(c2ccc(F)cc2)C1 [Compound 46, (R)-N-((1R,2R)-1-(2,3-dihydrobenzo[b][1,4]dioxin-6-yl)-1-hydroxy-3-(piperidin-1-yl)propan-2-yl)-1-(4-fluorophenyl)pyrrolidine-3-carboxamide] | F (1-49% (or less than 50%))
O=C(N[C@H](CN1CCCC1)[C@H](O)c1ccc(OC2CC2)c(Cl)c1)[C@@H]1CCN(C(=O)c2ccccc2)C1 [Compound 129, (R)-1-benzoyl-N-((1R,2R)-1-(3-chloro-4-cyclopropoxyphenyl)-1-hydroxy-3-(pyrrolidin-1-yl)propan-2-yl)pyrrolidine-3-carboxamide] | F (1-49% (or less than 50%))
CC1(C)CCc2cc([C@@H](O)[C@@H](CN3CCCC3)NC(=O)[C@H]3CCN(c4ccc(Cl)cc4)C3)ccc2O1 [Compound 51A, (S)-1-(4-chlorophenyl)-N-((1R,2R)-1-(2,2-dimethylchroman-6-yl)-1-hydroxy-3-(pyrrolidin-1-yl)propan-2-yl)pyrrolidine-3-carboxamide] | NA (not active—a negative value was generated for % inhibition)
O=C(N[C@H](CN1CCCC1)[C@H](O)c1ccc2c(c1)OCCO2)[C@H]1CCN(CC2(O)CCOCC2)C1 [Compound 5E, (S)-N-((1R,2R)-1-(2,3-dihydrobenzo[b][1,4]dioxin-6-yl)-1-hydroxy-3-(pyrrolidin-1-yl)propan-2-yl)-1-((4-hydroxytetrahydro-2H-pyran-4-yl)methyl)pyrrolidine-3-carboxamide] | F (1-49% (or less than 50%))
CC1(C)CCc2cc([C@@H](O)[C@@H](CN3CCCC3)NC(=O)[C@@H]3CCN(c4ccc(Cl)cc4)C3)ccc2O1 [Compound 51, (R)-1-(4-chlorophenyl)-N-((1R,2R)-1-(2,2-dimethylchroman-6-yl)-1-hydroxy-3-(pyrrolidin-1-yl)propan-2-yl)pyrrolidine-3-carboxamide] | F (1-49% (or less than 50%))
O=C(N[C@H](CN1CCCC1)[C@H](O)c1ccc2c(c1)OCCO2)C1CCN(c2ccc(Cl)c(Cl)c2)C1 (stereo in doubt) [Compound 8D, (S)-1-(3,4-dichlorophenyl)-N-((1R,2R)-1-(2,3-dihydrobenzo[b][1,4]dioxin-6-yl)-1-hydroxy-3-(pyrrolidin-1-yl)propan-2-yl)pyrrolidine-3-carboxamide] | E (50-74% (or less than 75%))
O=C(N[C@H](CN1CCCC1)[C@H](O)c1ccc2c(c1)OCCO2)[C@@H]1CCN(c2cnc3cccnc3c2)C1 [Compound 90, (R)-N-((1R,2R)-1-(2,3-dihydrobenzo[b][1,4]dioxin-6-yl)-1-hydroxy-3-(pyrrolidin-1-yl)propan-2-yl)-1-(1,5-naphthyridin-3-yl)pyrrolidine-3-carboxamide] | F (1-49% (or less than 50%))
O=C(N[C@H](CN1CCCC1)[C@H](O)c1ccc2c(c1)OCCO2)[C@@H]1CCN(c2ccc3cc(F)ccc3c2Cl)C1 [Compound 88, (R)-1-(1-chloro-6-fluoronaphthalen-2-yl)-N-((1R,2R)-1-(2,3-dihydrobenzo[b][1,4]dioxin-6-yl)-1-hydroxy-3-(pyrrolidin-1-yl)propan-2-yl)pyrrolidine-3-carboxamide] | D (75-100%)

From patent publication US10239832B2, “N-(1-hydroxy-3-(pyrrolidinyl)propan-2-yl)pyrrolidine-3-carboxamide derivatives as glucosylceramide synthase inhibitors” (BIOMARIN PHARMACEUTICAL INC., priority 2013, dated 2019)
